# Patent publication US20250270200A1, “CTPS1 INHIBITORS AND USES THEREOF” (Nimbus Clotho, Inc., priority 2022, published 2025)
# Molecular target: T1, human CTPS1 (Homo sapiens, UniProt P17812)
# T1 sequence (P17812 1-591): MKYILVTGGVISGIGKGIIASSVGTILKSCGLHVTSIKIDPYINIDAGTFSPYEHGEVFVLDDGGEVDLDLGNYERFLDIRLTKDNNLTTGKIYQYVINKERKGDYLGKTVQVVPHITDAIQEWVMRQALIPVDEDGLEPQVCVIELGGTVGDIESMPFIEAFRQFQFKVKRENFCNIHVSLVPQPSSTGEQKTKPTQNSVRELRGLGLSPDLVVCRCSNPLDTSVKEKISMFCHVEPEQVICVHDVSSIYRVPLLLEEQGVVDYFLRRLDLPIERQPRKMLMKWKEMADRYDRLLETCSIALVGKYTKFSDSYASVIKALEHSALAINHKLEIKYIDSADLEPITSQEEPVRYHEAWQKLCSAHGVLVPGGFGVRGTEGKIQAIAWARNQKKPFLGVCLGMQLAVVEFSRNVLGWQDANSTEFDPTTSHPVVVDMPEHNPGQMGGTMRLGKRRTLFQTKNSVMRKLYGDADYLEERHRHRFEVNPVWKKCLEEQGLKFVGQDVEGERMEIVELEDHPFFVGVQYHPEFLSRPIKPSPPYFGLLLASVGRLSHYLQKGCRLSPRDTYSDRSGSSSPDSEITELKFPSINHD
# Experiment: ADP-Glo assay, human CTPS1 enzyme inhibition
# Format: biochemical
# Conditions: wild-type human CTPS1, 25 nM enzyme; ADP-Glo; read-out: ADP-Glo_WT_hCTPS1—25 nM_IC50 (IC50)
# Procedure: The enzyme inhibitory activities of the compounds of the invention against the target of interest were determined using the ADP-Glo™ assay (Promega). Assays for human CTPS1 and CTPS2 were performed in 1× assay buffer containing 50 mM HEPES (Life Technologies), 10 mM Mg2+, 5 mM KCl, 2 mM DTT, 0.01% F-127, pH to 7.4 accordingly. All reagents are from Sigma-Aldrich, unless specified otherwise. Purified human full length active N-terminal FLAG-8×HIS-TEV tagged CTPS1 (UniprotKB—P17812, […]-CTPS1[1-591]) was generated using a mammalian expression system at Viva Biotech (Shanghai) Ltd.
# Purified human CTPS1 protein was prepared in 1× assay buffer to the final working protein concentration required for the reaction. A 2.5 μL volume per well of human CTPS 1 protein was mixed with 0.1 μL per well of test compound dissolved in DMSO and pre-incubated at 25 degrees C. for 10 minutes. 2.5 μL per well of the reaction precursors ATP (UltraPure ATP from ADP-Glo™ kit) and UTP were then added and pre-incubated for an additional 10 minutes at 25 degrees C. Finally, the reaction was initiated by the addition of 5 μL of the reaction precursors L-glutamine and GTP. The final concentration of all reaction components in the assay: ATP (120 μM), UTP (160 μM), GTP (60 μM), L-Glutamine (100 μM), DMSO (1%), hCTPS1 (25 nM). This mixture was incubated for an appropriate amount of time within the determined linear phase of the reaction at 25 degrees C. under sealed plate conditions with constant agitation at 500 revolutions per minute (rpm). ADP-Glo™ reagent was added for 60 minutes (10 μL per well) and subsequently ADP-Glo™ development reagent was added for 60 minutes (20 μL per well) prior to signal detection in a microplate reader (Envision Multilabel Reader, Perkin Elmer). Following each reagent addition over the course of the assay, assay plates were pulse centrifuged for 1 minute at 1000 rpm.
# The enzyme converts ATP to ADP and the ADP-Glo™ reagent subsequently depletes any remaining ATP in the reaction system. The ADP-Glo™ detection reagents converts the ADP that has been produced by the enzyme back into ATP, which is then utilized as a substrate together with luciferin for the enzyme luciferase. Light generated by this chemiluminescent reaction is quantified and is directly proportional to the amount of ADP produced by the CTPS1 enzyme reaction. […]
row,IC50 [nM],Compound
1,5 to 25,"COCC[C@H](NC(=O)c1ncc(-c2cnn3ccc(Cl)cc23)s1)c1cc(NS(=O)(=O)C2CC2)ccn1 (single isomer, unassigned) [I-1]"
2,5 to 25,"COCC[C@@H](NC(=O)c1ncc(-c2cnn3ccc(Cl)cc23)s1)c1cc(NS(=O)(=O)C2CC2)ccn1 (single isomer, unassigned) [I-2]"
3,5 to 25,"COC[C@H](NC(=O)c1ncc(-c2cnn3ccc(Cl)cc23)s1)c1cc(NS(=O)(=O)C2CC2)ccn1 (single isomer, unassigned) [I-3]"
4,5 to 25,"COC[C@@H](NC(=O)c1ncc(-c2cnn3ccc(Cl)cc23)s1)c1cc(NS(=O)(=O)C2CC2)ccn1 (single isomer, unassigned) [I-4]"
5,> 100,"CCOc1cncc(-c2ccc(C(=O)N[C@@H](CCN3CCCCC3)c3cc(NS(=O)(=O)C4CC4)ccn3)c(F)c2F)n1 (single isomer, unassigned) [I-6]"
6,5 to 25,"CCOc1cncc(-c2ccc(C(=O)N[C@H](CCN3CCCCC3)c3cc(NS(=O)(=O)C4CC4)ccn3)c(F)c2F)n1 (single isomer, unassigned) [I-7]"
7,> 100,"O=C(N[C@@H](CCN1CCCCC1)c1cc(NS(=O)(=O)C2CC2)ccn1)c1ncc(-c2cnn3ccc(Cl)cc23)s1 (single isomer, unassigned) [I-9]"
8,5 to 25,"O=C(N[C@H](CCN1CCCCC1)c1cc(NS(=O)(=O)C2CC2)ccn1)c1ncc(-c2cnn3ccc(Cl)cc23)s1 (single isomer, unassigned) [I-10]"
9,5 to 25,"CCOc1cncc(-c2cnc(C(=O)N[C@@H](COC)c3nccc(NS(=O)(=O)C4CC4)c3F)s2)n1 (single isomer, unassigned) [I-11]"
10,5 to 25,"CCOc1cncc(-c2cnc(C(=O)N[C@H](COC)c3nccc(NS(=O)(=O)C4CC4)c3F)s2)n1 (single isomer, unassigned) [I-12]"
11,50 to 100,"CCOc1cncc(-c2cnc(C(=O)N[C@@H](CCN(C)C3CCCCC3)c3cc(NS(=O)(=O)C4CC4)ccn3)s2)n1 (single isomer, unassigned) [I-13]"
12,5 to 25,"CCOc1cncc(-c2cnc(C(=O)N[C@H](CCN(C)C3CCCCC3)c3cc(NS(=O)(=O)C4CC4)ccn3)s2)n1 (single isomer, unassigned) [I-14]"
13,50 to 100,"CCOc1cncc(-c2cnc(C(=O)N[C@@H](CCN3CCC(F)CC3)c3cc(NS(=O)(=O)C4CC4)ccn3)s2)n1 (single isomer, unassigned) [I-15]"
14,5 to 25,"CCOc1cncc(-c2cnc(C(=O)N[C@H](CCN3CCC(F)CC3)c3cc(NS(=O)(=O)C4CC4)ccn3)s2)n1 (single isomer, unassigned) [I-16]"
15,≤ 5,"CCOc1cncc(-c2cnc(C(=O)N[C@H](CCN3CCCC4(CC4)C3)c3cc(NS(=O)(=O)C4CC4)ccn3)s2)n1 (single isomer, unassigned) [I-17]"
16,> 100,"CCOc1cncc(-c2cnc(C(=O)N[C@@H](CCN3CCCC4(CC4)C3)c3cc(NS(=O)(=O)C4CC4)ccn3)s2)n1 (single isomer, unassigned) [I-18]"
17,5 to 25,"O=C(N[C@H](c1cc(NS(=O)(=O)C2CC2)ccn1)[C@H]1CCOC1)c1ncc(-c2cnn3ccc(Cl)cc23)s1 (single isomer, unassigned) [I-22]"
18,5 to 25,"O=C(N[C@H](c1cc(NS(=O)(=O)C2CC2)ccn1)[C@@H]1CCOC1)c1ncc(-c2cnn3ccc(Cl)cc23)s1 (single isomer, unassigned) [I-23]"
19,5 to 25,"O=C(N[C@@H](c1cc(NS(=O)(=O)C2CC2)ccn1)[C@@H]1CCOC1)c1ncc(-c2cnn3ccc(Cl)cc23)s1 (single isomer, unassigned) [I-24]"
20,5 to 25,"O=C(N[C@@H](c1cc(NS(=O)(=O)C2CC2)ccn1)[C@H]1CCOC1)c1ncc(-c2cnn3ccc(Cl)cc23)s1 (single isomer, unassigned) [I-25]"

row,IC50 [nM],Compound
1,> 100,"CCOc1cncc(-c2cnc(C(=O)N[C@@H](C[C@@H]3CCCCN3C(C)C)c3cc(NS(=O)(=O)C4CC4)ccn3)s2)n1 (single isomer, unassigned) [I-26]"
2,5 to 25,"CCOc1cncc(-c2cnc(C(=O)N[C@H](C[C@H]3CCCCN3C(C)C)c3cc(NS(=O)(=O)C4CC4)ccn3)s2)n1 (single isomer, unassigned) [I-27]"
3,≤ 5,"CCOc1cncc(-c2cnc(C(=O)N[C@@H](C[C@H]3CCCCN3C(C)C)c3cc(NS(=O)(=O)C4CC4)ccn3)s2)n1 (single isomer, unassigned) [I-28]"
4,> 100,"CCOc1cncc(-c2cnc(C(=O)N[C@H](C[C@@H]3CCCCN3C(C)C)c3cc(NS(=O)(=O)C4CC4)ccn3)s2)n1 (single isomer, unassigned) [I-29]"
5,25 to 50,"CCOc1cncc(-c2cnc(C(=O)N[C@@H](CN3C[C@H]4COC[C@H]4C3)c3cc(NS(=O)(=O)C4CC4)ccn3)s2)n1 (single isomer, unassigned) [I-30]"
6,5 to 25,"CCOc1cncc(-c2cnc(C(=O)N[C@H](CN3C[C@H]4COC[C@H]4C3)c3cc(NS(=O)(=O)C4CC4)ccn3)s2)n1 (single isomer, unassigned) [I-31]"
7,25 to 50,"CCOc1cncc(-c2cnc(C(=O)N[C@@H](CN3CCOC[C@H]3C)c3cc(NS(=O)(=O)C4CC4)ccn3)s2)n1 (single isomer, unassigned) [I-32]"
8,5 to 25,"CCOc1cncc(-c2cnc(C(=O)N[C@H](CN3CCOC[C@H]3C)c3cc(NS(=O)(=O)C4CC4)ccn3)s2)n1 (single isomer, unassigned) [I-33]"
9,5 to 25,"CCOc1cncc(-c2cnc(C(=O)N[C@@H](CN3CCOC[C@@H]3C)c3cc(NS(=O)(=O)C4CC4)ccn3)s2)n1 (single isomer, unassigned) [I-34]"
10,≤ 5,"CCOc1cncc(-c2cnc(C(=O)N[C@H](CN3CCOC[C@@H]3C)c3cc(NS(=O)(=O)C4CC4)ccn3)s2)n1 (single isomer, unassigned) [I-35]"
11,50 to 100,"CCOc1cncc(-c2cnc(C(=O)N[C@@H](CN3[C@@H]4CC[C@H]3COC4)c3cc(NS(=O)(=O)C4CC4)ccn3)s2)n1 (single isomer, unassigned) [I-36]"
12,5 to 25,"CCOc1cncc(-c2cnc(C(=O)N[C@H](CN3[C@@H]4CC[C@H]3COC4)c3cc(NS(=O)(=O)C4CC4)ccn3)s2)n1 (single isomer, unassigned) [I-37]"
13,5 to 25,"CCOc1cncc(-c2cnc(C(=O)N[C@@H](CN3CCCC3)c3cccc(NS(=O)(=O)C(F)F)c3)s2)n1 (single isomer, unassigned) [I-38]"
14,25 to 50,"CCOc1cncc(-c2cnc(C(=O)N[C@H](CN3CCCC3)c3cccc(NS(=O)(=O)C(F)F)c3)s2)n1 (single isomer, unassigned) [I-39]"
15,25 to 50,"CCOc1cncc(-c2cnc(C(=O)N[C@H](CN3CCN(C4CC4)CC3)c3cccc(NS(=O)(=O)C(F)F)c3)s2)n1 (single isomer, unassigned) [I-40]"
16,5 to 25,"CCOc1cncc(-c2cnc(C(=O)N[C@@H](CN3CCN(C4CC4)CC3)c3cccc(NS(=O)(=O)C(F)F)c3)s2)n1 (single isomer, unassigned) [I-41]"
17,50 to 100,"CCOc1cncc(-c2cnc(C(=O)N[C@H](c3cc(NS(=O)(=O)C4CC4)ccn3)C(C)(C)CN(C)C)s2)n1 (single isomer, unassigned) [I-42]"
18,5 to 25,"CCOc1cncc(-c2cnc(C(=O)N[C@H](c3cc(NS(=O)(=O)C4CC4)ccn3)[C@H](C)OC)s2)n1 (single isomer, unassigned) [I-47]"
19,5 to 25,"CCOc1cncc(-c2cnc(C(=O)N[C@@]3(c4cc(NS(=O)(=O)C5CC5)ccn4)CCOC3)s2)n1 (single isomer, unassigned) [I-71]"
